In one data set the test system is EbolaΔVP30-GFP virus. Put plainly: microbe, parasite or virus in culture. Type of data set: cell-based, Zaire ebolavirus. Conditions: for % GFP inhibition: 5 µM; for inhibition at 5 µM: Zaire ebolavirus, read-out: % GFP inhibition; for pIC50: read-out: IC50.
A further data set relates to VSVΔG*-Ebolavirus GP. Type of data set: cell-based.

pIC50: −log10 of the molar value. Where two headings read alike, the source gives them in different places.

Turning to `CCC(C)C(=O)O[C@@H]1C[C@@]2(C)[C@H](c3ccoc3)OC(=O)CC23OC2(C)OC34[C@H](OC(=O)C(C)C)[C@@]3(O)[C@@H](OC(=O)C5(C)OC5C)[C@@]5(C)C[C@]3(O)[C@@](C)([C@H]5CC(=O)OC)C14O2` (stereo partly shown) [Entandrophragmin], in the data set on EbolaΔVP30-GFP virus, the “% GFP inhibition” value was −12%. The “% cell viability” value with VeroVP30 cells is 83%.

For orientation: inhibition means the relative decrease from the control value, in per cent. `CC1(C)C(=O)C=C[C@]2(C)[C@H]3CC[C@@]4(C)[C@H](c5ccoc5)OC(=O)[C@H]5O[C@]54[C@]3(C)[C@H](O)C[C@@H]12` [Deacetylgedunin]: in the data set on EbolaΔVP30-GFP virus, the “anti-Ebolavirus activity” value is recorded as “did not show any anti-Ebolavirus activity” and the inhibition at 5 µM came out at 45%. Also, in the data set with VeroVP30 cells (green monkey), the “% cell viability” value is recorded as 86%.

Consider 6-Hydroxyangolensic acid methyl ester, for which the “% GFP inhibition” value in the data set with EbolaΔVP30-GFP virus came out at 15%. For the same compound, the “% cell viability” value with VeroVP30 cells stood at 94%.

Take `CC(=O)O[C@@H]1CC2C(C)(C)C=CC(=O)[C@]2(C)C2CC[C@@]3(C)[C@H](c4ccoc4)OC(=O)C4OC43[C@@]21C` (stereo partly shown) [Isogedunin]: the “% GFP inhibition” value in the data set with EbolaΔVP30-GFP virus is 35%. In addition, the “% cell viability” value with VeroVP30 cells came out at 86%.

Regarding `CC(=O)O[C@@H]1C[C@H]2C(C)(C)[C@H](O)C[C@H](O)[C@]2(C)[C@H]2CC[C@@]3(C)[C@H](c4ccoc4)OC(=O)[C@H]4O[C@]43[C@@]21C` [1,3-Dideacetylkhivorin], the “% GFP inhibition” value with EbolaΔVP30-GFP virus is listed as 82%. For the same compound, in the data set on VeroVP30 cells, the “% cell viability” value is given as 78%.

For the compound `C=C1[C@@H]([C@@]2(C)C=CC(=O)C(C)(C)[C@@H]2CC(=O)OC)CC[C@@]2(C)[C@H](c3ccoc3)OC(=O)[C@H]3O[C@]132` [Andirobin], in the data set with EbolaΔVP30-GFP virus, the inhibition at 5 µM was -12%. The “% cell viability” value in the data set on VeroVP30 cells (green monkey) turned out to be 91%.

For “3beta-Hydroxydeoxydesacetoxy-7-oxogedunin”, the “% GFP inhibition” value with EbolaΔVP30-GFP virus is 75%. Moreover, the “% cell viability” value in the data set with VeroVP30 cells stood at 81%.

In the case of `CC(=O)O[C@H]1CC[C@]2(C)[C@H]3CC[C@@]4(C)[C@H](c5ccoc5)OC(=O)[C@H]5O[C@]54[C@]3(C)[C@H](OC(C)=O)C[C@H]2C1(C)C` [3beta-Acetoxydeoxodihydrogedunin], in the data set on EbolaΔVP30-GFP virus, the “% GFP inhibition” value is given as 90%. Also, the “% cell viability” value in the data set on VeroVP30 cells worked out at 80%.

With `C=C1[C@@H]2CC[C@@]3(C)[C@H](c4ccoc4)OC(=O)C[C@]13O[C@H]1CC(=O)C(C)(C)[C@H](CC(=O)OC)[C@]12C` [Angolensic acid, methyl ester], in the data set on EbolaΔVP30-GFP virus, the “% GFP inhibition” value is listed as 4%. For the same compound, in the data set on VeroVP30 cells, the “% cell viability” value came to 85%.

Regarding `CC(=O)OC1CC2C(C)(C)[C@@H](O)CC[C@]2(C)C2CC[C@]3(C)[C@H](c4ccoc4)OC(=O)[C@H]4O[C@]43[C@]12C` (stereo partly drawn) [3beta-Hydroxydeoxodihydrogedunin], the “% GFP inhibition” value with EbolaΔVP30-GFP virus is 75%. Moreover, the “% cell viability” value in the data set with VeroVP30 cells stood at 79%.

With `CC1(C)C(=O)C=C[C@]2(C)[C@H]3CC[C@@]4(C)[C@H](c5ccoc5)OC(=O)[C@H]5O[C@]54[C@]3(C)C(=O)C[C@@H]12` [Deacetoxy-7-oxogedunin], the “% GFP inhibition” value in the data set with EbolaΔVP30-GFP virus was found to be 80%. Moreover, the “% cell viability” value with VeroVP30 cells stood at 79%.

As for `CC1(C)C(=O)C=C[C@]2(C)[C@H]3CC[C@@]4(C)[C@H](c5ccoc5)OC(=O)[C@H]5O[C@]54[C@]3(C)C=C[C@@H]12` [7-Desacetoxy-6,7-dehydrogedunin], in the data set on EbolaΔVP30-GFP virus, the “% GFP inhibition” value is 2%. In addition, in the data set with VeroVP30 cells, the “% cell viability” value worked out at 70%.

Regarding `CCC(C)C(=O)O[C@@H]1C[C@@]2(C)[C@H](c3ccoc3)OC(=O)CC23OC2(C)O[C@]14[C@]1(C)[C@@H](CC(=O)OC)C5(C)CC1(O)[C@](O)(C5OC(=O)C1(C)OC1C)[C@@H](OC(C)=O)[C@]34O2` (stereo partly shown) [Utilin], the inhibition at 5 µM with EbolaΔVP30-GFP virus was 4%. Besides, the “% cell viability” value in the data set with VeroVP30 cells (green monkey) was determined as 75%.

With 7-Deacetyldihydrogedunin, the “% GFP inhibition” value in the data set on EbolaΔVP30-GFP virus is −30%. For the same compound, the “% cell viability” value with VeroVP30 cells came out at 85%.

11alpha-Acetoxykhivorin: the “% GFP inhibition” value with EbolaΔVP30-GFP virus was −47%. In the data set with VeroVP30 cells, the “% cell viability” value stood at 93%.

Take Heudelottin E: in the data set with EbolaΔVP30-GFP virus, the “% GFP inhibition” value is reported as −49%. Moreover, the “% cell viability” value in the data set with VeroVP30 cells came out at 93%.

With `CC(=O)O[C@H]1C[C@@H](OC(C)=O)C(C)(C)[C@@H]2C[C@@H](OC(C)=O)[C@]3(C)[C@H](CC[C@@]4(C)[C@H](c5ccoc5)OC(=O)[C@H]5O[C@@]534)[C@@]12C` [Khivorin], in the data set on EbolaΔVP30-GFP virus, the inhibition at 5 µM worked out at 0%. Also, the “% cell viability” value in the data set on VeroVP30 cells (green monkey) is 82%.

Turning to `C=C1[C@@H]([C@@]2(C)[C@@H](OC(C)=O)CC(=O)O[C@](C)(COC(C)=O)[C@@H]2C(=O)OC)[C@@H](OC=O)[C@H](OC(=O)[C@H](O)[C@H](C)CC)[C@@]2(C)[C@H](c3ccoc3)CC(=O)[C@]12O` [Prieurianin], the inhibition at 5 µM with EbolaΔVP30-GFP virus was -17%. In the data set on VeroVP30 cells (green monkey), the “% cell viability” value is reported as 89%.

As a reminder, the pIC50 is −log10 of the IC50, conventionally taken in molar units. In general, CC50 refers to the concentration giving 50% cytotoxicity. In the case of 7-Deacetoxy-3-deacetyl-7-oxokhivorin, in the data set with EbolaΔVP30-GFP virus, the “% GFP inhibition” value came out at 92% and the pIC50 is 6.25. For the same compound, in the data set on VeroVP30 cells, the “% cell viability” value came to 80% and the CC50 is above 10 µM.

For `CC1(C)C=CC(=O)[C@@]2(C)C1CC(=O)[C@]1(C)C2CC[C@@]2(C)[C@H](c3ccoc3)OC(=O)C3OC321` (stereo partly shown) [Deacetoxy-7-oxisogedunin], the “% GFP inhibition” value in the data set with EbolaΔVP30-GFP virus is 41%. Also, the “% cell viability” value in the data set on VeroVP30 cells is recorded as 84%.

As for `CC(=O)O[C@@H]1C[C@H]2C(C)(C)C(=O)CC[C@]2(C)[C@H]2CC[C@@]3(C)[C@H](c4ccoc4)OC(=O)[C@H]4O[C@]43[C@@]21C` [Dihydrogedunin], in the data set on EbolaΔVP30-GFP virus, the inhibition at 5 µM came out at 96%. In addition, the “% cell viability” value with VeroVP30 cells (green monkey) turned out to be 79%.

Take `CC(=O)O[C@@H]1CC(=O)[C@@]2(C)C(CC(=O)[C@]3(C)C2CC[C@@]2(C)[C@H](c4ccoc4)OC(=O)C4OC423)C1(C)C` (stereo partly shown) [1,7-Dideacetoxy-1,7-dioxokhivorin]: the “% GFP inhibition” value in the data set with EbolaΔVP30-GFP virus stood at 39%. The “% cell viability” value with VeroVP30 cells turned out to be 88%.

For `CC(=O)O[C@H]1C[C@@H](O)C(C)(C)[C@@H]2C[C@@H](OC(C)=O)[C@]3(C)[C@H](CC[C@@]4(C)[C@@H](c5ccoc5)OC(=O)[C@H]5O[C@@]534)[C@@]12C` [3-Deacetylkhivorin], in the data set on EbolaΔVP30-GFP virus, the “% GFP inhibition” value is 6%. The “% cell viability” value in the data set with VeroVP30 cells came out at 102%.

As for `CC(=O)O[C@@H]1C[C@H]2C(C)(C)CCC(=O)[C@]2(C)[C@H]2CC[C@@]3(C)[C@H](c4ccoc4)OC(=O)[C@H]4O[C@]43[C@@]21C` [2,3-Dihydroisogedunin], the “% GFP inhibition” value with EbolaΔVP30-GFP virus is given as −17%. Moreover, the “% cell viability” value in the data set on VeroVP30 cells turned out to be 91%.

With `CC(=O)O[C@H]1C[C@@H](OC(C)=O)C(C)(C)C2C[C@@H](O)[C@]3(C)C(CC[C@@]4(C)[C@H](c5ccoc5)OC(=O)[C@H]5O[C@]543)[C@]21C` (stereo partly shown) [7-Deacetylkhivorin], the “% GFP inhibition” value in the data set with EbolaΔVP30-GFP virus was found to be 13%. The “% cell viability” value in the data set on VeroVP30 cells came to 91%.

As to `CC(=O)O[C@@H]1CC2C(C)(C)[C@H](O)C=C[C@]2(C)C2CC[C@@]3(C)[C@H](c4ccoc4)OC(=O)C4OC43[C@@]21C` (stereo partly shown) [Gedunol], the “% GFP inhibition” value in the data set with EbolaΔVP30-GFP virus was determined as 79%. For the same compound, in the data set on VeroVP30 cells, the “% cell viability” value was found to be 82%.

For “1,2alpha-Epoxy-7-Deacetoxy-7-Oxo-Deoxyhydrogedunin”, in the data set with EbolaΔVP30-GFP virus, the “% GFP inhibition” value was found to be 75% and the negative-log IC50 (pIC50) was 5.15. In the data set with VSVΔG*-Ebolavirus GP, the “% infectivity of VSVΔG*-Ebolavirus GP” value came out at 6.5±1.6%. Moreover, in the data set with VeroVP30 cells, the CC50 is above 10 µM.

As for `CC(=O)O[C@H]1C[C@@H](OC(C)=O)C(C)(C)C2CC(=O)[C@]3(C)C(CC[C@@]4(C)[C@H](c5ccoc5)OC(=O)[C@H]5O[C@]543)[C@]21C` (stereo partly shown) [7-Deacetoxy-7-oxokhivorin], the “% GFP inhibition” value with EbolaΔVP30-GFP virus is reported as 26%. Moreover, the “% cell viability” value in the data set on VeroVP30 cells worked out at 90%.

For the compound `CC1(C)C(=O)[C@@H]2O[C@@H]2[C@@]2(C)C1C[C@@H](O)[C@]1(C)C2CC[C@@]2(C)[C@H](c3ccoc3)OC(=O)C3OC321` (stereo partly drawn) [1,2alpha-Epoxydeacetoxydihydrogedunin], in the data set with EbolaΔVP30-GFP virus, the “% GFP inhibition” value was 75%. Moreover, the “% cell viability” value in the data set on VeroVP30 cells is recorded as 77%.

Regarding `CC1(C)C2CC(=O)[C@]3(C)C(CC[C@@]4(C)[C@H](c5ccoc5)OC(=O)C5OC543)[C@@]2(C)[C@@H](O)C[C@H]1O` (stereo partly shown) [1,3-Dideacetyl-7-deacetoxy-7-oxokhivorin], in the data set on EbolaΔVP30-GFP virus, the “% GFP inhibition” value came out at 100% and the pIC50 is above 6.82. Moreover, in the data set with VeroVP30 cells, the “% cell viability” value is 78% and the CC50 is above 10 µM.

For the compound “1-Deacetoxy-1-oxo-3,7-dideacetylkhivorin”, in the data set with EbolaΔVP30-GFP virus, the “% GFP inhibition” value was found to be 19%. The “% cell viability” value in the data set on VeroVP30 cells is listed as 94%.

As to `CC(=O)O[C@@H]1CC2C(C)(C)[C@H](O)CC[C@]2(C)C2CC[C@@]3(C)[C@H](c4ccoc4)OC(=O)C4OC43[C@@]21C` (stereo partly drawn) [3alpha-Hydroxydeoxodihydrogedunin], the “% GFP inhibition” value in the data set on EbolaΔVP30-GFP virus is reported as 85%. In the data set with VeroVP30 cells, the “% cell viability” value is 94%.

In the case of `CC(=O)OC1CC(OC(C)=O)C2(C)C(CC(OC(C)=O)C3(C)C2CCC2(C)C(c4ccoc4)OC(=O)C4OC423)C1(C)C` (stereo not shown) [7-Epikhivorin], the “% GFP inhibition” value with EbolaΔVP30-GFP virus came to 4%. In the data set on VeroVP30 cells, the “% cell viability” value stood at 79%.

Consider `C=C1C2CC[C@@]3(C)[C@H](c4ccoc4)OC(=O)C[C@]13O[C@H]1CC(=O)C(C)(C)[C@H](C(OC(C)=O)C(=O)OC)[C@@]21C` (stereo partly shown) [6-Acetoxyangolensic acid methyl ester], for which the “% GFP inhibition” value with EbolaΔVP30-GFP virus is 32%. In addition, in the data set on VeroVP30 cells, the “% cell viability” value is reported as 88%.

Regarding `CC1(C)C2CC(=O)[C@]3(C)C(CC[C@@]4(C)[C@H](c5ccoc5)OC(=O)[C@H]5O[C@]543)[C@@]2(C)C(=O)C[C@H]1O` (stereo partly shown) [1,7-Dideacetoxy-1,7-dioxo-3-deacetylkhivorin], the “% GFP inhibition” value in the data set on EbolaΔVP30-GFP virus came to 14%. The “% cell viability” value with VeroVP30 cells is recorded as 87%.

Take `CCC(C)C(OC(C)=O)C(=O)O[C@H]1[C@H](O)[C@@H]2[C@@]3(C)C=CC(=O)C(C)(C)[C@@H]3C[C@@H](OC(=O)C(O)C(C)C)[C@@]2(C)[C@@]23O[C@@H]2C[C@@H](c2ccoc2)[C@]13C` (stereo partly shown) [Heudelottin C]: in the data set on EbolaΔVP30-GFP virus, the “% GFP inhibition” value was found to be 104%. In addition, the “% cell viability” value in the data set on VeroVP30 cells was 5%.
